Measured values from patent US10274488B2, “Glycan arrays on PTFE-like aluminum coated glass slides and related methods” (Academia Sinica, priority 2008, dated 2019).

Legend:
[1] = test system: cellulase from T. viride; test: Enzymatic hydrolysis on the PTFE-like ACG slide with cellulase from T. viride, MS-TOF readout; format: biochemical, Trichoderma viride; conditions: reaction on the ACG slide, pH 5
Experimental: (§1) Enzymatic hydrolysis of the immobilized poly-fluorinated cellobiose 8 (see FIG. 14) was first conducted in situ on the phosphonic acid slide surface. Three commercially available cellulases, Aspergillus niger (A. niger), Trichoderma reesei (T. reesei), and Trichoderma viride (T. viride) were prepared separately at 5 U/mL in a sodium acetate (25 mM) buffer solution (pH 5) and loaded onto the functionalized slide which has been divided into 16 wells using Fast Frame reaction chambers. For comparison, an aliquot of enzyme solution (100 μL) was added to the solution of fluorinated cellobiose (100 μL of 0.5 mM) in eppendorfs to carry out the enzymatic hydrolysis reactions in solution. After the reaction, it was transferred to the empty wells of the same slide. Each well was rinsed separately three times with de-ionized water and the slide was dried again under high vacuum before subjecting to MS-TOF analysis.
(§2) Under MS-TOF analysis, the clean background baseline allowed calculation of the percentage of hydrolyzed components for each sample. As shown in the MS-TOF results in FIG. 20, percentages of hydrolyzed products are calculated from the peak intensities of each spectrum. According to implementations of experimental data shown in FIG. 20, MS-TOF data of enzymatic hydrolysis of poly-fluorinated cellobiose in solution in FIG. 20A and immobilized on PTFE-like ACG slide in FIG. 20B. The control are the same experimental conditions run without enzymes in (a); (b), (c), and (d) are experimental conditions with the cellulase proteins from A. niger (b), T. reesei (c), and T. viride (d).
(§3) Cellulase was prepared (5 U/mL in 25 mM pH 5.05 NaOAc buffer solution). Substrate was also dissolved in NaOAc buffer solution (25 mM, pH 5.05) to give 0.5 mM substrate solution. Add 50 μL cellulase solution to 50 μL substrate solution onto the glass slide which was loaded in FAST® Frame multi-slide plate to have a 2.5 U/mL cellulase solution with 0.25 mM substrate. The well of the plate was sealed and the whole assembly was incubated in 37° C. for 18 hours. Put the slide in dry box to remove the water, and then use high vacuum to remove trace water. 100 uL water was used to rinse each well of the FAST® Frame multi-slide plate to solve and remove the salt of the buffer solution. Remove any residual water on the plate by high vacuum and then analyzed the slide by MALDI-TOF Ultra-Flex II.

[2] = test system: endoglucanase 44A; test: Enzymatic hydrolysis in solution with purified endoglucanase 44A, MS-TOF assay; format: biochemical, Clostridium thermocellum; conditions: reaction in solution
Experimental: To verify, the exoglucanases (L3) and endoglucanase (44A) were prepared according methods well known in the literature with minor modifications. First, enzymatic hydrolysis reactions were conducted in solution with the purified enzymes using substrates 8, 9 and 10. At the completion of the reaction, the solution mixtures were transferred to the PTFE-like ACG slide, and prepared by using the same washing procedures before being subjected to MS-TOF assay.
For each carbohydrate, a specific enzyme was added: (a) is the control run without enzymes, (b) is exoglucanase L3, and (c) is endoglucanase 44A. […]
(§4) Cellulase was prepared (5 U/mL in 25 mM pH 5.05 NaOAc buffer solution). Substrate was also dissolved in NaOAc buffer solution (25 mM, pH 5.05) to give 0.5 mM substrate solution. Add 100 uL cellulase solution to 100 uL substrate solution in eppendorf to have a 2.5 U/mL cellulase solution with 0.25 mM substrate. This solution was incubated in 37° C. for 18 hours. Add 100 μL incubated solution onto the slide loaded in FAST® Frame. Put the slide in dry box to remove the water, and then use high vacuum to remove trace water. 100 μL water was used to rinse each well of the FAST® Frame multi-slide plate to solve and remove the salt of the buffer solution. Remove any residual water on the plate by high vacuum and then analyzed the slide by MALDI-TOF Ultra-Flex II.
The genomic DNA of Sulfolobus solfataricus (ATCC 35092) and Clostridium thermocellum (ATCC 27405) were obtained from the ATCC biological resource center. The Sso7d (NCBI accession number: AAK42090) gene fragment was amplified directly from the Sulfolobus solfataricus genome by polymerase chain reaction (PCR) with forward 5′ […] 3′ (SEQ ID NO: 1) and reverse 5′ […] 3′ (SEQ ID NO: 2) primers. The PCR product encoding Sso7d was digested with NdeI and BamHI and subsequently cloned into expression vector pET-28a (Novagen) to generate pET-28-Sso7d. […]

[3] = test system: cellulase from A. niger; test: Enzymatic hydrolysis on the PTFE-like ACG slide with cellulase from A. niger, MS-TOF readout; format: biochemical, Aspergillus niger; conditions: reaction on the ACG slide
Experimental: as §1, §2, §3

[4] = test system: cellulase from T. viride; test: Enzymatic hydrolysis in solution with cellulase from T. viride, MS-TOF readout; format: biochemical, Trichoderma viride; conditions: reaction in solution, pH 5
Experimental: as §1, §2, §4

SMILES	Biose (un-hydrolyzed cellobiose), percentage of hydrolyzed pattern [1] [%]	F-tail, percentage of hydrolyzed pattern [1] [%]	Glucose, percentage of hydrolyzed pattern [1] [%]	Triose, percentage of hydrolyzed pattern [1]	Cleavage of the substrate by endoglucanase 44A (in words) [2]	Biose (un-hydrolyzed cellobiose), percentage of hydrolyzed pattern ([3]; pH 5) [%]	F-tail, percentage of hydrolyzed pattern ([3]; pH 5)	Glucose, percentage of hydrolyzed pattern ([3]; pH 5) [%]	Triose, percentage of hydrolyzed pattern ([3]; pH 5) [%]	Biose (un-hydrolyzed cellobiose), percentage of hydrolyzed pattern ([3]; pH 5, listed as cellobiose) [%]	Biose (un-hydrolyzed cellobiose), percentage of hydrolyzed pattern [4] [%]	F-tail, percentage of hydrolyzed pattern [4] [%]	Glucose, percentage of hydrolyzed pattern [4] [%]	Triose, percentage of hydrolyzed pattern [4]
O=C(NCCCCCO[C@@H]1O[C@H](CO)[C@@H](O[C@@H]2O[C@H](CO)[C@@H](O)[C@H](O)[C@H]2O)[C@H](O)[C@H]1O)OCCCC(F)(F)C(F)(F)C(F)(F)C(F)(F)C(F)(F)C(F)(F)C(F)(F)C(F)(F)F [Compound 8, [(4,4,5,5,6,6,7,7,8,8,9,9,10,10,11,11,12,12,12-nonadecafluorododecoxycarbonyl-amino)pentyl] ß-D-cellobioside]	77	6	17	0/0%	can't accept	1	0/0%	0	0	100	3	38	58	0/0%
O=C(NCCCCCO[C@@H]1O[C@H](CO)[C@@H](O[C@@H]2O[C@H](CO)[C@@H](O[C@@H]3O[C@H](CO)[C@@H](O)[C@H](O)[C@H]3O)[C@H](O)[C@H]2O)[C@H](O)[C@H]1O)OCCCC(F)(F)C(F)(F)C(F)(F)C(F)(F)C(F)(F)C(F)(F)C(F)(F)C(F)(F)C(F)(F)F [Compound 9, [(4,4,5,5,6,6,7,7,8,8,9,9,10,10,11,11,12,12,12-nonadecafluorododecoxycarbonyl-amino)pentyl] ß-D-glucopyranosyl-(1→4)-ß-D-glucopyranosyl-(1→4)- -ß-D-glucopyranoside]	–	–	–	–	can't accept	–	–	–	–	–	–	–	–	–
